Data: ChEMBL document CHEMBL3217615, “Novel 3,5-bis(arylidiene)-4-piperidone based monocarbonyl analogs of curcumin: anticancer activity evaluation and mode of action study” (2014)

Assays:
Assay type in all cases: functional
[1] = Growth inhibition of human RXF393 cells assessed as cell growth at 10^-4 M after 48 hrs by sulforhodamine B assay; conditions: RXF 393, 48 h, read-out: Activity
[2] = Growth inhibition of human OVCAR3 cells assessed as cell growth at 10^-8 M after 48 hrs by sulforhodamine B assay; conditions: OVCAR-3, 48 h
HCT-116 [3] = assay: Growth inhibition of human HCT116 cells assessed as cell growth at 10^-6 M after 48 hrs by sulforhodamine B assay; conditions: HCT-116, 48 h, read-out: Activity
RPMI-8226 [4] = assay: Growth inhibition of human RPMI8226 cells assessed as cell growth at 10^-8 M after 48 hrs by sulforhodamine B assay; conditions: RPMI-8226, 48 h
MDA-MB-435 = assay: Growth inhibition of human MDA-MB-435 cells assessed as cell growth at 10^-4 M after 48 hrs by sulforhodamine B assay; conditions: MDA-MB-435, 48 h, read-out: Activity
A549 = assay: Growth inhibition of human A549/ATCC cells assessed as cell growth at 10^-7 M after 48 hrs by sulforhodamine B assay; conditions: A549, 48 h, read-out: Activity
NCI-H23 [5] = assay: Growth inhibition of human NCI-H23 cells assessed as cell growth at 10^-6 M after 48 hrs by sulforhodamine B assay; conditions: NCI-H23, 48 h, read-out: Activity
[6] = Growth inhibition of human HOP92 cells assessed as cell growth at 10^-8 M after 48 hrs by sulforhodamine B assay; conditions: HOP-92, 48 h
Malme-3M = assay: Growth inhibition of human MALME-3M cells assessed as cell growth at 10^-4 M after 48 hrs by sulforhodamine B assay; conditions: read-out: Activity
[7] = Growth inhibition of human UACC62 cells after 48 hrs by sulforhodamine B assay; conditions: UACC-62, 48 h
MDA-MB-468 = assay: Growth inhibition of human MDA-MB-468 cells assessed as cell growth at 10^-7 M after 48 hrs by sulforhodamine B assay; conditions: MDA-MB-468, 48 h, read-out: Activity
DU-145 = assay: Growth inhibition of human DU145 cells assessed as cell growth at 10^-7 M after 48 hrs by sulforhodamine B assay; conditions: DU-145, 48 h, read-out: Activity
[8] = Growth inhibition of human HCC2998 cells assessed as cell growth at 10^-4 M after 48 hrs by sulforhodamine B assay; conditions: HCC 2998, 48 h, read-out: Activity
[9] = Growth inhibition of human HCT15 cells assessed as cell growth at 10^-8 M after 48 hrs by sulforhodamine B assay; conditions: HCT-15, 48 h
SNB-75 = assay: Growth inhibition of human SNB75 cells assessed as cell growth at 10^-7 M after 48 hrs by sulforhodamine B assay; conditions: SNB-75, 48 h, read-out: Activity
HL-60(TB) = assay: Growth inhibition of human HL-60(TB) cells assessed as cell growth at 10^-4 M after 48 hrs by sulforhodamine B assay; conditions: HL-60, 48 h, read-out: Activity
CCRF-CEM [10] = assay: Growth inhibition of human CCRF-CEM cells assessed as cell growth at 10^-8 M after 48 hrs by sulforhodamine B assay
HCT-116 [11] = assay: Growth inhibition of human HCT116 cells after 48 hrs by sulforhodamine B assay; conditions: HCT-116, 48 h
[12] = Growth inhibition of human OVCAR8 cells assessed as cell growth at 10^-6 M after 48 hrs by sulforhodamine B assay; conditions: OVCAR-8, 48 h, read-out: Activity
CCRF-CEM [13] = assay: Growth inhibition of human CCRF-CEM cells assessed as cell growth at 10^-7 M after 48 hrs by sulforhodamine B assay; conditions: read-out: Activity
[14] = Growth inhibition of human HCC2998 cells assessed as cell growth at 10^-7 M after 48 hrs by sulforhodamine B assay; conditions: HCC 2998, 48 h, read-out: Activity
NCI-H460 = assay: Growth inhibition of human NCI-H460 cells assessed as cell growth at 10^-6 M after 48 hrs by sulforhodamine B assay; conditions: NCI-H460, 48 h, read-out: Activity
MDA-MB-231 = assay: Growth inhibition of human MDA-MB-231 cells assessed as cell growth at 10^-7 M after 48 hrs by sulforhodamine B assay; conditions: MDA-MB-231, 48 h, read-out: Activity
T47D [15] = assay: Growth inhibition of human T47D cells assessed as cell growth at 10^-8 M after 48 hrs by sulforhodamine B assay
PC-3 = assay: Growth inhibition of human PC3 cells assessed as cell growth at 10^-4 M after 48 hrs by sulforhodamine B assay; conditions: PC-3, 48 h, read-out: Activity
[16] = Growth inhibition of human LOXIMVI cells assessed as cell growth at 10^-7 M after 48 hrs by sulforhodamine B assay; conditions: LOX IMVI, read-out: Activity
T47D [17] = assay: Growth inhibition of human T47D cells assessed as cell growth at 10^-7 M after 48 hrs by sulforhodamine B assay; conditions: read-out: Activity
U-251 [18] = assay: Growth inhibition of human U251 cells assessed as cell growth at 10^-4 M after 48 hrs by sulforhodamine B assay; conditions: U-251, 48 h, read-out: Activity
NCI-H23 [19] = assay: Growth inhibition of human NCI-H23 cells assessed as cell growth at 10^-8 M after 48 hrs by sulforhodamine B assay; conditions: NCI-H23, 48 h
U-251 [20] = assay: Growth inhibition of human U251 cells assessed as cell growth at 10^-7 M after 48 hrs by sulforhodamine B assay; conditions: U-251, 48 h, read-out: Activity
RPMI-8226 [21] = assay: Growth inhibition of human RPMI8226 cells assessed as cell growth at 10^-6 M after 48 hrs by sulforhodamine B assay; conditions: RPMI-8226, 48 h, read-out: Activity
K562 = assay: Growth inhibition of human K562 cells after 48 hrs by sulforhodamine B assay; conditions: K562, 48 h
ACHN = assay: Growth inhibition of human ACHN cells assessed as cell growth at 10^-7 M after 48 hrs by sulforhodamine B assay; conditions: read-out: Activity
[22] = read-out: pLC50 (the source's name) (converted)
[23] = read-out: LC50 (the source's name)

## O=C1/C(=C/c2ccc(Cl)cc2Cl)CN(S(=O)(=O)c2ccccc2)C/C1=C\c1ccc(Cl)cc1Cl
[1]
  growth at 100 µM: -88%
[2]
  GI50: 309 nM
  LC50: 5010 nM
[2]; read-out: Activity
  growth at 0.01 µM: 112%
[2]; read-out: pTGI (converted)
  TGI: 813 nM
HCT-116 [3]
  growth at 1 µM: -56%
RPMI-8226 [4]
  GI50: 224 nM
RPMI-8226 [4]; read-out: Activity
  growth at 0.01 µM: 104%
RPMI-8226 [4]; [22]
  CC50: > 100000 nM
RPMI-8226 [4]; read-out: pTGI (converted)
  TGI: 603 nM
MDA-MB-435
  growth at 100 µM: -9%
A549
  growth at 0.1 µM: 94%
NCI-H23 [5]
  growth at 1 µM: 18%
[6]
  GI50: 1700 nM
  LC50: > 100000 nM
[6]; read-out: Activity
  growth at 0.01 µM: 81%
[6]; read-out: pTGI (converted)
  TGI: 5500 nM
Malme-3M
  growth at 100 µM: 22%
[7]
  GI50: 804 nM
  TGI: 2310 nM
[7]; [23]
  CC50: 5810 nM
MDA-MB-468
  growth at 0.1 µM: 94%
DU-145
  growth at 0.1 µM: 110%
[8]
  growth at 100 µM: -66%
[9]
  GI50: 245 nM
  LC50: > 100000 nM
[9]; read-out: Activity
  growth at 0.01 µM: 95%
[9]; read-out: pTGI (converted)
  TGI: 759 nM
SNB-75
  growth at 0.1 µM: 71%
HL-60(TB)
  growth at 100 µM: -13%
CCRF-CEM [10]
  GI50: 288 nM
CCRF-CEM [10]; read-out: Activity
  growth at 0.01 µM: 98%
CCRF-CEM [10]; [22]
  CC50: > 100000 nM
CCRF-CEM [10]; read-out: pTGI (converted)
  TGI: 1000 nM
HCT-116 [11]
  GI50: 198 nM
  TGI: 424 nM
HCT-116 [11]; [23]
  CC50: 908 nM
[12]
  growth at 1 µM: -2%
CCRF-CEM [13]
  growth at 0.1 µM: 92%
[14]
  growth at 0.1 µM: 102%
NCI-H460
  growth at 1 µM: -53%
MDA-MB-231
  growth at 0.1 µM: 99%
T47D [15]
  GI50: 1260 nM
T47D [15]; read-out: Activity
  growth at 0.01 µM: 99%
T47D [15]; [22]
  CC50: > 100000 nM
T47D [15]; read-out: pTGI (converted)
  TGI: 100000 nM
PC-3
  growth at 100 µM: -26%
[16]
  growth at 0.1 µM: 89%
T47D [17]
  growth at 0.1 µM: 96%
U-251 [18]
  growth at 100 µM: -63%
NCI-H23 [19]
  GI50: 427 nM
  LC50: > 100000 nM
NCI-H23 [19]; read-out: Activity
  growth at 0.01 µM: 103%
NCI-H23 [19]; read-out: pTGI (converted)
  TGI: 2690 nM
U-251 [20]
  growth at 0.1 µM: 86%
RPMI-8226 [21]
  growth at 1 µM: -25%
K562
  GI50: 346 nM
  TGI: > 100000 nM
K562; [23]
  CC50: > 100000 nM
ACHN
  growth at 0.1 µM: 96%
